Data as given in patent publication US9192688B2 (priority 2009, dated 2015).
Like-named read-outs stand apart in the source and are kept apart here.

What was measured:
[1] = tested on: test organisms (Bacillus cereus, Staphylococcus aureus, Salmonella typhimurium, Escherichia coli, Saccharomyces cerevisiae, bacteriophage); settings: for effect on viable count of test organisms: 5 kg meat
model prion protein = settings: T5 protocol; 5 g meat, 20% moisture, 100 ug model prion protein

## OO [gaseous hydrogen peroxide, hydrogen peroxide]
[1]; trial T1: 30 ml 30% (v/v) H2O2 vaporised, 2.6 g/kg, 0.01 g/kg/s, 30 minutes contact, about 0.01 kPa
  effect on viable count of test organisms: little or no effect
[1]; trial T2: 60 ml 30% (v/v) H2O2 vaporised, 0.01 g/kg/s, 30 minutes contact
  effect on viable count of test organisms: little or no effect
[1]; trial T3: 90 ml 30% (v/v) H2O2, 7.9 g/kg meat, 0.01 g/kg/s, 30 minutes contact
  effect on the organisms: significant effect
[1]; trial T5: 30 ml introduced rapidly over about 5 seconds (0.5 g/kg/s), then 60 ml at 0.01 g/kg/s
  inactivation compared with T3 on increasing the contact rate: enhanced
Mesophilic organisms
  effect on viable count: elimination
S. typhimurium
  effect on viable count: elimination
S. aureus
  effect on viable count: elimination
E. coli
  effect on viable count: elimination
Model prion protein
  prion content after treatment versus positive control: significantly destroyed
S. cerevisiae
  inactivation of S. cerevisiae: particularly striking effect
